# What was measured:
# Format in all cases: in vivo
# [1] = test system: Abutilon theophrasti (ABUTH); assay: Pre-emergence herbicidal activity (B1); conditions: Test 1a; pre-emergence application; rate 1000 g/ha; evaluated after 13 days; score 0-5
# Experimental: (§1) Seeds of a variety of test species were sown in standard soil in pots: Triticum aestivium (TRZAW), Avena fatua (AVEFA), Alopecurus myosuroides (ALOMY), Echinochloa crus-galli (ECHCG), Lolium perenne (LOLPE), Zea Mays (ZEAMX), Abutilon theophrasti (ABUTH), Amaranthus retroflexus (AMARE) and Setaria faberi (SETFA). […] The test plants were then grown in a glasshouse under controlled conditions (at 24/16° C., day/night; 14 hours light; 65% humidity) and watered twice daily. After 13 days, the test was evaluated (5=total damage to plant; 0=no damage to plant).
# [2] = test system: Amaranthus retroflexus (AMARE); assay: Pre-emergence herbicidal activity (B1); conditions: Test 1a; pre-emergence application; rate 1000 g/ha; evaluated after 13 days; score 0-5
# Experimental: as §1
# [3] = test system: Echinochloa crus-galli (ECHCG); assay: Pre-emergence herbicidal activity (B1); conditions: Test 1a; pre-emergence application; rate 1000 g/ha; evaluated after 13 days; score 0-5
# Experimental: as §1
# Lolium perenne (LOLPE) [4] = assay: Pre-emergence herbicidal activity (B1); conditions: Test 1a; pre-emergence application; rate 1000 g/ha; evaluated after 13 days; score 0-5
# Experimental: as §1
# Setaria faberi (SETFA) [5] = assay: Pre-emergence herbicidal activity (B1); conditions: Test 1a; pre-emergence application; rate 1000 g/ha; evaluated after 13 days; score 0-5
# Experimental: as §1
# Zea Mays (ZEAMX) [6] = assay: Pre-emergence herbicidal activity (B1); conditions: Test 1a; pre-emergence application; rate 1000 g/ha; evaluated after 13 days; score 0-5
# Experimental: as §1
# [7] = test system: Abutilon theophrasti (ABUTH); assay: Post-emergence herbicidal activity (B2); conditions: Test B2a; post-emergence application; rate 1000 g/ha; evaluated after 13 days; score 0-5
# Experimental: as §1
# [8] = test system: Amaranthus retroflexus (AMARE); assay: Post-emergence herbicidal activity (B2); conditions: Test B2a; post-emergence application; rate 1000 g/ha; evaluated after 13 days; score 0-5
# Experimental: as §1
# [9] = test system: Echinochloa crus-galli (ECHCG); assay: Post-emergence herbicidal activity (B2); conditions: Test B2a; post-emergence application; rate 1000 g/ha; evaluated after 13 days; score 0-5
# Experimental: as §1
# Lolium perenne (LOLPE) [10] = assay: Post-emergence herbicidal activity (B2); conditions: Test B2a; post-emergence application; rate 1000 g/ha; evaluated after 13 days; score 0-5
# Experimental: as §1
# Setaria faberi (SETFA) [11] = assay: Post-emergence herbicidal activity (B2); conditions: Test B2a; post-emergence application; rate 1000 g/ha; evaluated after 13 days; score 0-5
# Experimental: as §1
# Zea Mays (ZEAMX) [12] = assay: Post-emergence herbicidal activity (B2); conditions: Test B2a; post-emergence application; rate 1000 g/ha; evaluated after 13 days; score 0-5
# Experimental: as §1
smiles,measurement,setting,value
Cc1nc(-c2cncnc2)cnc1N [Compound G1],"damage to plant, ABUTH",[1],0
same,"damage to plant, AMARE",[2],0
same,"damage to plant, ECHCG",[3],1
same,"damage to plant, LOLPE",Lolium perenne (LOLPE) [4],0
same,"damage to plant, SETFA",Setaria faberi (SETFA) [5],2
same,"damage to plant, ZEAMX",Zea Mays (ZEAMX) [6],1
same,"damage to plant, ABUTH",[7],1
same,"damage to plant, AMARE",[8],2
same,"damage to plant, ECHCG",[9],1
same,"damage to plant, LOLPE",Lolium perenne (LOLPE) [10],1
same,"damage to plant, SETFA",Setaria faberi (SETFA) [11],2
same,"damage to plant, ZEAMX",Zea Mays (ZEAMX) [12],2
